# Results: patent US9896481B2, “Modified mini-hepcidin peptides and methods of using thereof” (priority 2011, dated 2018)
# Read-outs that look alike come from different tables or passages of the source. Starred links: 1 amine or outer side, 2 acyl side, 3 side chain; linkers in the order of their positions; H or OH if unused. Positions of bridges follow the written chain, without caps; N, C: chain ends. Non-standard residues stand in square brackets, D forms with d. Residues, ends and D or L forms follow the SMILES beside them. No end group written: not given here. *: point of attachment. PEG12 = NCCOCCOCCOCCOCCOCCOCCOCCOCCOCCOCCOCCOCCC(=O)O; X1 = O=C(C[C@H](N[*:1])C(c1ccccc1)c1ccccc1)[*:2]; dDip = N[C@@H](C(=O)O)C(c1ccccc1)c1ccccc1; Oic = O=C(O)[C@@H]1C[C@@H]2CCCC[C@@H]2N1; Dip = N[C@H](C(=O)O)C(c1ccccc1)c1ccccc1; Palmitoyl = CCCCCCCCCCCCCCCC(=O)*; X2 = O=C(C1CCC(CN[*:1])CC1)[*:2]; Cysteamide = C(CS[*:3])N[*:1]; Chg = N[C@H](C(=O)O)C1CCCCC1; Phg = N[C@H](C(=O)O)c1ccccc1; Tle = CC(C)(C)[C@H](N)C(=O)O; Inp = O=C(O)C1CCNCC1
# Molecular target: T1, ferroportin tagged at the C-terminus with green fluorescent protein (Fpn-GFP) (Mus musculus, UniProt Q9JHI9)
# T1 construct: expressed in transfected cells; host or cells: ECR293/Fpn-GFP (stably transfected, ponasterone-inducible)
# T1 sequence (Q9JHI9 1-570): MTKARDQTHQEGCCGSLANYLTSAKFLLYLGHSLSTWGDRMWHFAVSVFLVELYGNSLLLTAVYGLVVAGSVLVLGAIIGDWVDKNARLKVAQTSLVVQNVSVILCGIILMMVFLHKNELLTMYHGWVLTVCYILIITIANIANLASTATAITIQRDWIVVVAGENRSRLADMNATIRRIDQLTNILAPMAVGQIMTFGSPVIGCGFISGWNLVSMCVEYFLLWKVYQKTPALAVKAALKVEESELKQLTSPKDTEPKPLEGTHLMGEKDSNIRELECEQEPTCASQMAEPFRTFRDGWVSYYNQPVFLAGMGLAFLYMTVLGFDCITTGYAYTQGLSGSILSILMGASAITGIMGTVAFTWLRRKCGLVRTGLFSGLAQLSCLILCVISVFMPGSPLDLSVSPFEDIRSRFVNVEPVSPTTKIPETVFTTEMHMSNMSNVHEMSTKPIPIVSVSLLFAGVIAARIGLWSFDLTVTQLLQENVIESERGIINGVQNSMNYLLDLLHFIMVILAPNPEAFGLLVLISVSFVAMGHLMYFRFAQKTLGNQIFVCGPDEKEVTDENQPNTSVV
# Assay: Flow cytometry of ferroportin-GFP degradation in ECR293/Fpn-GFP cells
# Format: cell-based
# Details: for DC50: read-out: EC50 (the source's name); for hepcidin activity relative to Hep25 (in words): FIGS. 1-4
# Description: In vitro activity may be measured by the dose-dependent loss of fluorescence of cells engineered to display ferroportin fused to green fluorescent protein as in Nemeth et al. (2006) Blood 107:328-33. Aliquots of cells are incubated for 24 hours with graded concentrations of a reference preparation of Hep25 or a mini-hepcidin. As provided herein, the EC50 values are provided as the concentration of a given compound (e.g. peptide) that elicits 50% of the maximal loss of fluorescence generated by the reference Hep25 preparation.
# Mutational studies indicate that C326, the cysteine residue at position 326 of human ferroportin, is the critical residue involved in binding hepcidin. Thus, various N-terminal fragments of Hep25 containing a thiol, i.e. Hep 4-7, Hep3-7, Hep3-8, Hep3-9, Hep1-7, Hep1-8, Hep1-9, and Hep1-10 C7A, were chemically synthesized, refolded and their activities relative to Hep25 were assayed using flow-cytometric quantitation of the ferroportin-GFP degradation, iron efflux estimation based on measurements of cellular ferritin, and radioisotopic iron efflux studies.
# The activity of peptides of the present invention was measured by flow cytometry as previously described. See Nemeth et al. (2006) Blood 107:328-333, which is herein incorporated by reference. ECR293/Fpn-GFP, a cell line stably transfected with a ponasterone-inducible ferroportin construct tagged at the C-terminus with green fluorescent protein was used. See Nemeth et al. (2004) Science 306:2090-2093, which is herein incorporated by reference. Briefly, the cells were plated on poly-D-lysine coated plates in the presence of 20 μM FAC, with or without 10 μM ponasterone. After 24 hours, ponasterone was washed off, and cells were treated with peptides for 24 hours. Cells were then trypsinized and resuspended at 1×10^6 cells/ml, and the intensity of green fluorescence was analyzed by flow cytometry. Flow cytometry was performed on FAC SCAN (fluorescence activated cell scanner) Analytic Flow Cytometer (Becton Dickinson, San Jose, Calif.) with […] version 3.3 software (Becton Dickinson). Cells not induced with ponasterone to express Fpn-GFP were used to establish a gate to exclude background fluorescence. Cells induced with ponasterone, but not treated with any peptides, were used as the positive control. Each peptide was tested over the range of concentrations (0, 0.01, 0.03, 0.1, 0.3, 1, 3 and 10 μM). Each peptide treatment was repeated independently 3 to 6 times. For each concentration of peptide, the results were expressed as a fraction of the maximal activity (FHep25) of Hep25 (in the dose range 0.01-10 μM), according to the formula 1−((Fx−FHep25)/(Funtreated−FHep25)), where F was the mean of the gated green fluorescence and x was the peptide.
# [1] = Table 1, 24 h peptide treatment, 50% of maximal loss of fluorescence by Hep25
# [2] = Table 1, 24 h peptide treatment, 50% of maximal loss of fluorescence by Hep25, read-out: EC50
# [3] = read-out: EC50 (nM) in vitro, Table 3
# [4] = ferroportin-GFP internalization, FIG. 3
molecule,measurement,setting,value
CC[C@H](C)[C@H](NC(=O)[C@H](CS)NC(=O)[C@@H](NC(=O)[C@@H]1CCCN1C(=O)C[C@H](NC(=O)[C@H](Cc1c[nH]cn1)NC(=O)[C@@H](NC(=O)[C@@H](N)CC(=O)O)[C@@H](C)O)C(c1ccccc1)c1ccccc1)[C@@H](C)CC)C(=O)N[C@@H](Cc1ccccc1)C(N)=O [F4bhDpa] (H-DTH[X1]PICIF-NH2; N-terminus assumed),DC50,[1],80 nM
CC[C@H](C)[C@H](NC(=O)[C@@H]1CSSC[C@H](N)C(=O)N[C@@H](CC(=O)O)C(=O)N[C@@H]([C@@H](C)O)C(=O)N[C@@H](Cc2c[nH]cn2)C(=O)N[C@@H](Cc2ccccc2)C(=O)N2CCC[C@H]2C(=O)N[C@@H]([C@@H](C)CC)C(=O)N1)C(=O)N[C@@H](Cc1ccccc1)C(N)=O [Cyc-1] (H-CDTHFPICIF-NH2; disulfide 1-8; N-terminus assumed),EC50,[2],300 nM
"CCCCCCCCCCCCCCCC(=O)NCCOCCOCCOCCOCCOCCOCCOCCOCCOCCOCCOCCOCCC(=O)N[C@H](Cc1ccccc1)C(=O)N[C@@H](C(=O)N[C@H](CS)C(=O)N[C@@H](C(=O)N1CCC[C@@H]1C(=O)N[C@@H](C(=O)N[C@H](Cc1c[nH]cn1)C(=O)N[C@@H](C(=O)N[C@H](CC(=O)O)C(N)=O)[C@H](C)O)C(c1ccccc1)c1ccccc1)C(C)C)C(C)C [PR51, R4-F-V-C-V-P-Dpa-H-T-D] ({Palmitoyl-PEG12}-[dF][dV][dC][dV][dP][dDip][dH][dT][dD]-NH2)",EC50,[3],100 nM
DTHFPIAIFC-NH2 [Hep10],hepcidin activity relative to Hep25 (in words),,quite active
same,"potency relative to Hep25 on a mass basis, times less potent",[4],about 4 times
same,"potency relative to Hep25 on a molar basis, times less potent",[4],about 10 times
"T2A: Hep25 with alanine substitution T2A (DAHFPICIFCCGCCHRSKCGMCCKT; disulfide (positions not given here); not fully specified (C-terminus); also: four disulfide bonds, pairing not given here; UniProt P81172 60-84, looked up, variant T2A)",hepcidin activity relative to Hep25 (in words),,did not substantially impact hepcidin activity
"CCCCCCCCCCCCCCCC(=O)NCCOCCOCCOCCOCCOCCOCCOCCOCCOCCOCCOCCOCCC(=O)N[C@H](Cc1ccccc1)C(=O)N[C@H](CC(C)C)C(=O)N[C@H](CS)C(=O)N[C@H](CC(C)C)C(=O)N1CCC[C@@H]1C(=O)N[C@@H](C(=O)N[C@H](Cc1c[nH]cn1)C(=O)N[C@@H](C(=O)N[C@H](CC(=O)O)C(N)=O)[C@H](C)O)C(c1ccccc1)c1ccccc1 [PR52, R4-F-L-C-L-P-Dpa-H-T-D] ({Palmitoyl-PEG12}-[dF][dL][dC][dL][dP][dDip][dH][dT][dD]-NH2)",EC50,[3],< 10 nM
N=C(N)NCCC[C@@H]1NC(=O)C2CCC(CC2)CNC(=O)[C@@H](C(c2ccccc2)c2ccccc2)NC(=O)[C@H]2CCCN2C(=O)[C@@H](N)CSSCCNC(=O)[C@H](C(c2ccccc2)c2ccccc2)NC(=O)C2CCN(CC2)C(=O)C2CCC(CC2)CNC1=O [PR-3] (H-C[dP][dDip][X2]R[X2][Inp][Dip]-Cysteamide; disulfide 1-C),EC50,read-out: EC50,1000 nM
"CCCCCCCCCCCCCCCC(=O)NCCOCCOCCOCCOCCOCCOCCOCCOCCOCCOCCOCCOCCC(=O)N[C@H](Cc1ccccc1)C(=O)N[C@@H](C(=O)N[C@H](CS)C(=O)N[C@@H](C(=O)N1CCC[C@@H]1C(=O)N[C@@H](C(=O)N[C@H](Cc1c[nH]cn1)C(=O)N[C@@H](C(=O)N[C@H](CC(=O)O)C(N)=O)[C@H](C)O)C(c1ccccc1)c1ccccc1)[C@H](C)CC)[C@H](C)CC [PR47, R4-F-I-C-I-P-Dpa-H-T-D] ({Palmitoyl-PEG12}-[dF][dI][dC][dI][dP][dDip][dH][dT][dD]-NH2)",EC50,[3],50 nM
"CCCCCCCCCCCCCCCC(=O)NCCOCCOCCOCCOCCOCCOCCOCCOCCOCCOCCOCCOCCC(=O)N[C@@H](C(=O)N[C@@H](C(=O)N[C@H](CS)C(=O)N[C@@H](C(=O)N1CCC[C@@H]1C(=O)N[C@@H](C(=O)N[C@H](Cc1c[nH]cn1)C(N)=O)C(c1ccccc1)c1ccccc1)[C@H](C)CC)[C@H](C)CC)C(c1ccccc1)c1ccccc1 [PR50, R4-Dpa-I-C-I-P-Dpa-H] ({Palmitoyl-PEG12}-[dDip][dI][dC][dI][dP][dDip][dH]-NH2)",EC50,[3],< 10 nM
"CCCCCCCCCCCCCCCC(=O)NCCOCCOCCOCCOCCOCCOCCOCCOCCOCCOCCOCCOCCC(=O)N[C@@H](C(=O)N[C@@H](C(=O)N[C@H](CS)C(=O)N[C@@H](C(=O)N1CCC[C@@H]1C(=O)N[C@@H](C(=O)N[C@H](Cc1c[nH]cn1)C(=O)N[C@@H](C(=O)N[C@H](CC(=O)O)C(N)=O)[C@H](C)O)C(c1ccccc1)c1ccccc1)[C@H](C)CC)[C@H](C)CC)C(c1ccccc1)c1ccccc1 [PR48, R4-Dpa-I-C-I-P-Dpa-H-T-D] ({Palmitoyl-PEG12}-[dDip][dI][dC][dI][dP][dDip][dH][dT][dD]-NH2)",EC50,[3],50 nM
N=C(N)NCCC[C@@H]1NC(=O)C2CCC(CC2)CNC(=O)[C@@H](C(c2ccccc2)c2ccccc2)NC(=O)C2CCN(CC2)C(=O)[C@@H](N)CSSCCNC(=O)[C@H](C(c2ccccc2)c2ccccc2)NC(=O)C2CCN(CC2)C(=O)C2CCC(CC2)CNC1=O [PR-1],EC50,read-out: EC50,1500 nM
CC(C)(C)[C@H](NC(=O)[C@@H](N)CC(=O)O)C(=O)N[C@@H](Cc1c[nH]cn1)C(=O)N[C@H](C(=O)N1[C@H](C(=O)N[C@H](C(=O)N[C@@H](CS)C(=O)N[C@H](C(=O)N[C@@H](Cc2ccccc2)C(N)=O)C2CCCCC2)C2CCCCC2)C[C@@H]2CCCC[C@@H]21)c1ccccc1 [PR10] (H-D[Tle]H[Phg][Oic][Chg]C[Chg]F-NH2),DC50,[1],> 3000 nM
CC[C@H](C)[C@H](NC(=O)[C@H](CS)NC(=O)[C@@H](NC(=O)[C@@H]1CCCN1C(=O)[C@@H](NC(=O)[C@@H](N)CC(=O)O)C(c1ccccc1)c1ccccc1)[C@@H](C)CC)C(=O)N[C@@H](Cc1ccccc1)C(N)=O [PR40] (H-D[Dip]PICIF-NH2),EC50,"read-out: EC50, Table 1, 24 h peptide treatment, 50% of maximal loss of fluorescence by Hep25",70 nM
CC(C)(C)[C@H](NC(=O)[C@@H](N)CC(=O)O)C(=O)N[C@@H](Cc1c[nH]cn1)C(=O)N1CCC[C@H]1C(=O)N1[C@H](C(=O)N[C@H](C(=O)N[C@@H](CS)C(=O)N[C@H](C(=O)N[C@@H](Cc2ccccc2)C(N)=O)C2CCCCC2)C2CCCCC2)C[C@@H]2CCCC[C@@H]21 [PR11] (H-D[Tle]HP[Oic][Chg]C[Chg]F-NH2),DC50,[1],> 3000 nM
N=C(N)NCCC[C@@H]1NC(=O)C2CCC(CC2)CNC(=O)[C@@H](C(c2ccccc2)c2ccccc2)NC(=O)CNC(=O)[C@@H](N)CSSCCNC(=O)[C@H](C(c2ccccc2)c2ccccc2)NC(=O)C2CCN(CC2)C(=O)C2CCC(CC2)CNC1=O [PR-4] (H-CG[dDip][X2]R[X2][Inp][Dip]-Cysteamide; disulfide 1-C),EC50,read-out: EC50,2000 nM
C[C@@H](O)[C@H](NC(=O)[C@@H](N)CC(=O)O)C(=O)N[C@@H](Cc1c[nH]cn1)C(=O)N[C@H](C(=O)N1CCC[C@H]1C(=O)N[C@@H](CS)C(=O)N[C@@H](CS)C(=O)N[C@@H](CS)C(=O)N[C@H](C(N)=O)C(c1ccccc1)c1ccccc1)C(c1ccccc1)c1ccccc1 [PR46] (H-DTH[Dip]PCCC[Dip]-NH2; N-terminus assumed),EC50,[2],80 nM
N=C(N)NCCC[C@@H]1NC(=O)C2CCC(CC2)CNC(=O)[C@@H](C(c2ccccc2)c2ccccc2)NC(=O)[C@@H]2CCCN2C(=O)[C@@H](N)CSSCCNC(=O)[C@H](C(c2ccccc2)c2ccccc2)NC(=O)C2CCN(CC2)C(=O)C2CCC(CC2)CNC1=O [PR-2] (H-CP[dDip][X2]R[X2][Inp][Dip]-Cysteamide; disulfide 1-C),EC50,read-out: EC50,2000 nM
